In patent US12371428B2 (Exelixis, Inc., priority 2019, dated 2025) one finds IC50 data, which are given here for 18 compounds.

For experiment [1], the target named is Human KDR (residues 790-1356) (Homo sapiens (Human), UniProt P35968). Description: Human KDR kinase assay, HTRF KinEase (Example B-2). Format: biochemical. The gist of the method:
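Ten compound concentrations (3% DMSO final) were pre-plated, then KDR (790-1356) with biotinylated peptide in Mg/Mn/DTT buffer was added; ATP at Km (4.0 μM) started a 40 min room-temperature reaction. Detection used Eu-TK antibody and SA-XL665 in EDTA buffer; activity normalized to DMSO and reference inhibitor, IC50 by logistic fit.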
(In TR-FRET formats the signal depends on donor and acceptor labels being close together.)

The target in experiment [2] is Human MER (residues 528-999) (Homo sapiens (Human), UniProt Q12866). In words: Human Mer kinase assay, HTRF KinEase (Example C-2). Format: biochemical. The procedure, abridged: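 IC50 values from 10 concentrations via 4-parameter logistic fit of […], with DMSO as 100% and 1 μM reference compound as 0% activity. Reaction: MER kinase domain 528-999, 1 ng/well, 40 μM ATP (Km), biotin peptide, 5 mM MgCl2, 1 mM DTT, 3% DMSO, room temperature 60 min; HTRF streptavidin-XL665/Eu-antibody detection.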

Experiment [3] addresses Met (phospho-Met, HGF-stimulated PC-3 prostate cancer cells) (Homo sapiens (Human), UniProt P08581). In words: Met autophosphorylation ELISA in PC-3 cells (Example F). It is filed as cell-based. The following applies: cellular activity; Met autophosphorylation ELISA in PC-3 cells; read-out: c-Met IC50. The procedure, abridged: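 PC-3 cells, serum-starved 3 h, were treated with compounds (8-point dose curve, 0.3% DMSO final) for 1 h, then stimulated with 100 ng/mL recombinant human HGF for 10 min. Lysate phospho-Met (panTyr) was quantified by sandwich ELISA; IC50 from 4-parameter logistic fit.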
(In general: ELISA stands for enzyme-linked immunosorbent assay.)

In experiment [4] the target is Mer (phospho-Mer, MERTK-transfected 293A cells) (Homo sapiens (Human), UniProt Q12866). Description: Mer autophosphorylation ELISA in transient transfected 293A cells (Example H). Format: cell-based. The following applies: cellular activity; Mer autophosphorylation ELISA in transient transfected 293A cells. The gist of the method: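 IC50 from 4-parameter logistic fit of phospho-Mer levels, quantified by ELISA against a phospho-Mer standard in lysates of MERTK-transfected 293A cells. Cells exposed 1 h to 8-point serial dilutions, serum-free, 0.3% DMSO; controls: DMSO (100%) and reference inhibitor (0%).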

Setting [5] is: protocol of Example B-2 (other compounds).
[6] abbreviates: protocol of Example C-2 (other compounds).

Chain of Mer (phospho-Mer, MERTK-transfected 293A cells) (Q12866 21-999): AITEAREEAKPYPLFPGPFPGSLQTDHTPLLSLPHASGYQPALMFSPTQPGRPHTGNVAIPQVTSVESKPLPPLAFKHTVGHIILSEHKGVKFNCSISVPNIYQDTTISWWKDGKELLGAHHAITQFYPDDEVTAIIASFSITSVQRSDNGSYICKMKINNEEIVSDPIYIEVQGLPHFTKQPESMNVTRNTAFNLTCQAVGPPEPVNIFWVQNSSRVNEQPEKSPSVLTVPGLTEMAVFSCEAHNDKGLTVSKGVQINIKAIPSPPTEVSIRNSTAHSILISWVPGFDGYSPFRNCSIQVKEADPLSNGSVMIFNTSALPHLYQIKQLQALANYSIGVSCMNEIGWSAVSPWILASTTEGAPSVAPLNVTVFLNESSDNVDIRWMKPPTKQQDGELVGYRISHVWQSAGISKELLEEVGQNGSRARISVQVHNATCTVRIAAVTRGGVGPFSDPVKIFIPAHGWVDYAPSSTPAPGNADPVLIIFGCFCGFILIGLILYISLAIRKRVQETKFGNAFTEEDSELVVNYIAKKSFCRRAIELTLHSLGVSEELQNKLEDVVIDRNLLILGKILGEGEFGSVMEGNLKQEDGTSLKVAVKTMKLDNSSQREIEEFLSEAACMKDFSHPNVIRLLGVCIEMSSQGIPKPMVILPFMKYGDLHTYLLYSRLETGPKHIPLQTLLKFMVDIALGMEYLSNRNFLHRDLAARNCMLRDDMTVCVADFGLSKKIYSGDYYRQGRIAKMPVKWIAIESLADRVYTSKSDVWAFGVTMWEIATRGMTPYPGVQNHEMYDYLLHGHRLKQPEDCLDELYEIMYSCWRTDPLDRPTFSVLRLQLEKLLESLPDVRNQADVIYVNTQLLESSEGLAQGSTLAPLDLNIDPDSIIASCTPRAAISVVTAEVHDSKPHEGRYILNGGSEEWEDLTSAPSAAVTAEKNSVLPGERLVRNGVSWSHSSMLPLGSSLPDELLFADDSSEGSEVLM
Chain of Human KDR (residues 790-1356) (P35968 790-1356): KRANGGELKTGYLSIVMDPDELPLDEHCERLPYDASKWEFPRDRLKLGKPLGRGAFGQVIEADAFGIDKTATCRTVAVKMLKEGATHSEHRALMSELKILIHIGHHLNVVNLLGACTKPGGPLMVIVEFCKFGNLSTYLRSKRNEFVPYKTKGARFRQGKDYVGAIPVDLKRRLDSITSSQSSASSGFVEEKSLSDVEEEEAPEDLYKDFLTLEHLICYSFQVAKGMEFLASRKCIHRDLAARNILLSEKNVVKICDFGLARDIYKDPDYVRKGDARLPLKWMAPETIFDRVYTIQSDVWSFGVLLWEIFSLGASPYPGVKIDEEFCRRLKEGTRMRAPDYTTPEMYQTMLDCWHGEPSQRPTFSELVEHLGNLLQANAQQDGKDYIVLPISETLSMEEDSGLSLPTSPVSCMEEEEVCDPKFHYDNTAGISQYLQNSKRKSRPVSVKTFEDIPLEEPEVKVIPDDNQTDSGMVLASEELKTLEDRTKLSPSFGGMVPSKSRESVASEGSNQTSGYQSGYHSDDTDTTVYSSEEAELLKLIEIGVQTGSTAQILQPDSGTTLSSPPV
Chain of Human MER (residues 528-999) (Q12866 528-999): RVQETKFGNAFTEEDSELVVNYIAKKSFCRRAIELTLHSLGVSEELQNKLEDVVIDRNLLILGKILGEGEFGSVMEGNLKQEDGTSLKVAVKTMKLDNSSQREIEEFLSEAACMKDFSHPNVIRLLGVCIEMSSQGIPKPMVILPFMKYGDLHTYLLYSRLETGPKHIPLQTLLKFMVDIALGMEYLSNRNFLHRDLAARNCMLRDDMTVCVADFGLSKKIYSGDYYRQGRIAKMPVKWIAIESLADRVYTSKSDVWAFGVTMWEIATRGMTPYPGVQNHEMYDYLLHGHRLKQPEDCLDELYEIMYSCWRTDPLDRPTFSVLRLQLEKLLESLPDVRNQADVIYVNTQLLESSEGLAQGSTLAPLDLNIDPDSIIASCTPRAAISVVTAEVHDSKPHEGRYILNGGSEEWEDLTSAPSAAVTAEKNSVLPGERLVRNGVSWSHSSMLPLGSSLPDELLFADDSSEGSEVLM
Chain of Met (phospho-Met, HGF-stimulated PC-3 prostate cancer cells) (P08581 25-1390): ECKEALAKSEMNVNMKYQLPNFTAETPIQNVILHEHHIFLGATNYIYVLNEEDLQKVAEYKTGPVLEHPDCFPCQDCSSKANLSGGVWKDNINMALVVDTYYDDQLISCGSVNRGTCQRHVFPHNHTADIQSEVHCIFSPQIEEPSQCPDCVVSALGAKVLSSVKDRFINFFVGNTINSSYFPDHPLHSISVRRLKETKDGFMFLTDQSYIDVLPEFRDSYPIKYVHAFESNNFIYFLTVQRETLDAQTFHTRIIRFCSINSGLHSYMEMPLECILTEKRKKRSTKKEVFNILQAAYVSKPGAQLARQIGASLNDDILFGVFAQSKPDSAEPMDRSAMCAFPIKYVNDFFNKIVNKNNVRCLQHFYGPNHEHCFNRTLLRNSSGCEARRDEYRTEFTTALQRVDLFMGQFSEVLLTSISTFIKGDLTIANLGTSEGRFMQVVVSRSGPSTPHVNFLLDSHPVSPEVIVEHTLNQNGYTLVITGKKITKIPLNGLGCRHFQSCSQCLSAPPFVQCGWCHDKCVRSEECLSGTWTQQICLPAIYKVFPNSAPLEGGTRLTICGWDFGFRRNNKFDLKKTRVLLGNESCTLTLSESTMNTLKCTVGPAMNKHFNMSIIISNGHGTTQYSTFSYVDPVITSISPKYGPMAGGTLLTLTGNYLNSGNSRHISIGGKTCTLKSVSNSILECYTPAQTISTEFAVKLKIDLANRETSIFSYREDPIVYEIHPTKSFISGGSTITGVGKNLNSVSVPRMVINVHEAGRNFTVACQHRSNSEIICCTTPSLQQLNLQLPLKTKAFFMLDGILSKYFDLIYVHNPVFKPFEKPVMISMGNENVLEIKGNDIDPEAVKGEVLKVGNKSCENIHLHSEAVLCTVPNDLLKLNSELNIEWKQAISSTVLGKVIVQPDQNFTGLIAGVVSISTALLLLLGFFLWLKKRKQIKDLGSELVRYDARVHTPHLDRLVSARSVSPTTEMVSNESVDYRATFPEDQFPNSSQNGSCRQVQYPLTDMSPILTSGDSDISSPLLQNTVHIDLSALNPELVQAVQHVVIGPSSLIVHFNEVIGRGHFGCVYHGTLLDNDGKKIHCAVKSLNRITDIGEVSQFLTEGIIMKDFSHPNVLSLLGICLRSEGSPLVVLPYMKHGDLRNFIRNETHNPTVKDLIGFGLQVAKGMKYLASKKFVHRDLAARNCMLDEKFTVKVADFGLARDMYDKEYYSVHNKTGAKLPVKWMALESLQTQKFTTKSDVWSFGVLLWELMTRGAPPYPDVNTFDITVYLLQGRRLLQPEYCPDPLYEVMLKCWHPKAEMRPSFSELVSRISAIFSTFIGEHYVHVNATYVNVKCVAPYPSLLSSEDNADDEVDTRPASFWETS

Take `COCCOc1ccc2nccc(Oc3ccc(NC(=O)c4c(C)nc(C)c(-c5ccc(F)cc5)c4O)cc3F)c2n1` [Compound 349, N-[3-fluoro-4-[[6-(2-methoxyethoxy)-1,5-naphthyridin-4-yl]oxy]phenyl]-5-(4-fluorophenyl)-4-hydroxy-2,6-dimethylpyridine-3-carboxamide]: the IC50 in experiment [1] (setting [5]), in experiment [2] (setting [6]), in experiment [3] and in experiment [4] was < 100 nM in each case.
In the case of `COc1cc2ncnc(Oc3ccc(NC(=O)c4c5n(cc(-c6ccc(F)cc6)c4=O)CCC5)cc3F)c2cc1OC` [Compound 406, N-[4-(6,7-dimethoxyquinazolin-4-yl)oxy-3-fluorophenyl]-6-(4-fluorophenyl)-7-oxo-2,3-dihydro-1H-indolizine-8-carboxamide], the IC50 (commonly the concentration at which inhibition is half-maximal) was > 300 nM in experiment [1] (setting [5]), < 100 nM in experiment [2] (setting [6]), < 100 nM in experiment [3] and < 100 nM in experiment [4].
Take `C=C(C)c1cnc2c(Oc3ccc(NC(=O)c4cnc(C)c(-c5ccc(F)cc5C)c4O)cc3)ccnc2c1` [Compound 448, 5-(4-fluoro-2-methylphenyl)-4-hydroxy-6-methyl-N-[4-[(7-prop-1-en-2-yl-1,5-naphthyridin-4-yl)oxy]phenyl]pyridine-3-carboxamide]: the IC50 was 100 to 300 nM in experiment [1] (protocol of Example B-2), < 100 nM in experiment [2] (protocol of Example C-2), < 100 nM in experiment [3] and < 100 nM in experiment [4].
For `C=C(C)c1cnc2c(Oc3ccc(NC(=O)c4cnc(C)c(-c5ccc(F)cc5C)c4O)cc3F)ccnc2c1` [Compound 450, 5-(4-fluoro-2-methylphenyl)-N-[3-fluoro-4-[(7-prop-1-en-2-yl-1,5-naphthyridin-4-yl)oxy]phenyl]-4-hydroxy-6-methylpyridine-3-carboxamide], the IC50 is 100 to 300 nM in experiment [1] (protocol of Example B-2), < 100 nM in experiment [2] (protocol of Example C-2), < 100 nM in experiment [3] and < 100 nM in experiment [4].
Turning to `C=C(C)c1cnc2c(Oc3ccc(NC(=O)c4c(C)nc(C)c(-c5ccc(F)cc5)c4O)cc3F)ccnc2c1` [Compound 451, 5-(4-fluorophenyl)-N-[3-fluoro-4-[(7-prop-1-en-2-yl-1,5-naphthyridin-4-yl)oxy]phenyl]-4-hydroxy-2,6-dimethylpyridine-3-carboxamide], the IC50 in experiment [1] (protocol of Example B-2), in experiment [2] (protocol of Example C-2), in experiment [3] and in experiment [4] was < 100 nM each time.
For `C=C(C)c1cnc2c(Oc3ccc(NC(=O)c4cnc(C)c(-c5ccc(F)cc5)c4O)cc3)ccnc2c1` [Compound 454, 5-(4-fluorophenyl)-4-hydroxy-6-methyl-N-[4-[(7-prop-1-en-2-yl-1,5-naphthyridin-4-yl)oxy]phenyl]pyridine-3-carboxamide], the IC50 in experiment [1] (protocol of Example B-2), in experiment [2] (protocol of Example C-2), in experiment [3] and in experiment [4] was < 100 nM throughout.
For `C=C(C)c1cnc2c(Oc3ccc(NC(=O)c4c(C)nc(C)c(-c5ccc(F)cc5)c4O)cc3)ccnc2c1` [Compound 455, 5-(4-fluorophenyl)-4-hydroxy-2,6-dimethyl-N-[4-[(7-prop-1-en-2-yl-1,5-naphthyridin-4-yl)oxy]phenyl]pyridine-3-carboxamide], the 50% inhibitory concentration (IC50) in experiment [1] (protocol of Example B-2), in experiment [2] (protocol of Example C-2), in experiment [3] and in experiment [4] was < 100 nM throughout.
`C=C(C)c1cnc2c(Oc3ccc(NC(=O)c4cnc(C)c(-c5ccc(F)cc5)c4O)cc3F)ccnc2c1` [Compound 456, 5-(4-fluorophenyl)-N-[3-fluoro-4-[(7-prop-1-en-2-yl-1,5-naphthyridin-4-yl)oxy]phenyl]-4-hydroxy-6-methylpyridine-3-carboxamide]: the IC50 in experiment [1] (protocol of Example B-2), in experiment [2] (protocol of Example C-2), in experiment [3] and in experiment [4] was < 100 nM each time.
As to `C=C(C)c1cnc2c(Oc3ccc(NC(=O)c4c(C)cc(C)n(-c5ccc(F)cc5)c4=O)cc3F)ccnc2c1` [Compound 457, 1-(4-fluorophenyl)-N-[3-fluoro-4-[(7-prop-1-en-2-yl-1,5-naphthyridin-4-yl)oxy]phenyl]-4,6-dimethyl-2-oxopyridine-3-carboxamide], the IC50 in experiment [1] (protocol of Example B-2), in experiment [2] (protocol of Example C-2), in experiment [3] and in experiment [4] was < 100 nM throughout.
Take `COc1nc2c(Oc3ccc(NC(=O)c4cnc(C)c(-c5ccc(F)cc5)c4O)cc3F)ccnc2cc1C` [Compound 458, N-[3-fluoro-4-[(6-methoxy-7-methyl-1,5-naphthyridin-4-yl)oxy]phenyl]-5-(4-fluorophenyl)-4-hydroxy-6-methylpyridine-3-carboxamide]: the IC50 in experiment [1] (protocol of Example B-2) was 100 to 300 nM; in experiment [2] (protocol of Example C-2) it was < 100 nM; in experiment [3], < 100 nM; in experiment [4] it was < 100 nM.
With `COc1nc2c(Oc3ccc(NC(=O)c4c(C)nc(C)c(-c5ccc(F)cc5)c4O)cc3F)ccnc2cc1C` [Compound 459, N-[3-fluoro-4-[(6-methoxy-7-methyl-1,5-naphthyridin-4-yl)oxy]phenyl]-5-(4-fluorophenyl)-4-hydroxy-2,6-dimethylpyridine-3-carboxamide], the IC50 was 100 to 300 nM in experiment [1] (protocol of Example B-2), < 100 nM in experiment [2] (protocol of Example C-2), < 100 nM in experiment [3] and < 100 nM in experiment [4].
On to `COc1nc2c(Oc3ccc(NC(=O)c4cnc(C)c(-c5ccc(F)cc5C)c4O)cc3F)ccnc2cc1C` [Compound 460, N-[3-fluoro-4-[(6-methoxy-7-methyl-1,5-naphthyridin-4-yl)oxy]phenyl]-5-(4-fluoro-2-methylphenyl)-4-hydroxy-6-methylpyridine-3-carboxamide], for which the IC50 in experiment [1] (protocol of Example B-2) is > 300 nM; in experiment [2] (protocol of Example C-2), < 100 nM; in experiment [3], < 100 nM; in experiment [4] it was < 100 nM.
Turning to `COc1cc2nccc(Oc3ccc(NC(=O)c4c(C)ncc(-c5ccc(F)cc5C)c4O)cc3F)c2nc1OC` [Compound 479, N-[4-[(6,7-dimethoxy-1,5-naphthyridin-4-yl)oxy]-3-fluorophenyl]-5-(4-fluoro-2-methylphenyl)-4-hydroxy-2-methylpyridine-3-carboxamide], the IC50 in experiment [1] (protocol of Example B-2), in experiment [2] (protocol of Example C-2), in experiment [3] and in experiment [4] was < 100 nM in each case.
As to `COc1ccc2nccc(Oc3ccc(NC(=O)c4c(C)ncc(-c5ccc(F)cc5C)c4O)cc3F)c2n1` [Compound 480, N-[3-fluoro-4-[(6-methoxy-1,5-naphthyridin-4-yl)oxy]phenyl]-5-(4-fluoro-2-methylphenyl)-4-hydroxy-2-methylpyridine-3-carboxamide], the IC50 in experiment [1] (protocol of Example B-2) was 100 to 300 nM; in experiment [2] (protocol of Example C-2) it was 100 to 300 nM; in experiment [3], < 100 nM; in experiment [4], < 100 nM.
Turning to `COc1cc2nccc(Oc3ccc(NC(=O)c4c(C)n(C)cc(-c5ccc(F)cc5C)c4=O)cc3F)c2nc1OC` [Compound 481, N-[4-[(6,7-dimethoxy-1,5-naphthyridin-4-yl)oxy]-3-fluorophenyl]-5-(4-fluoro-2-methylphenyl)-1,2-dimethyl-4-oxopyridine-3-carboxamide], the IC50 in experiment [1] (protocol of Example B-2) is 100 to 300 nM; in experiment [2] (protocol of Example C-2) it was < 100 nM; in experiment [3], < 100 nM; in experiment [4] it was < 100 nM.
Turning to `COCCOc1cc2nccc(Oc3ccc(NC(=O)c4c(COC)nc(C)c(-c5ccc(F)cc5)c4O)cc3F)c2nc1OC` [Compound 482, N-[3-fluoro-4-[[6-methoxy-7-(2-methoxyethoxy)-1,5-naphthyridin-4-yl]oxy]phenyl]-5-(4-fluorophenyl)-4-hydroxy-2-(methoxymethyl)-6-methylpyridine-3-carboxamide], the IC50 in experiment [1] (protocol of Example B-2), in experiment [2] (protocol of Example C-2), in experiment [3] and in experiment [4] was < 100 nM in each case.
Consider `COc1ccc2nccc(Oc3ccc(NC(=O)c4c(C)n(C)cc(-c5ccc(F)cc5C)c4=O)cc3F)c2n1` [Compound 483, N-[3-fluoro-4-[(6-methoxy-1,5-naphthyridin-4-yl)oxy]phenyl]-5-(4-fluoro-2-methylphenyl)-1,2-dimethyl-4-oxopyridine-3-carboxamide], for which the IC50 in experiment [1] (protocol of Example B-2) was > 300 nM; in experiment [2] (protocol of Example C-2), 100 to 300 nM; in experiment [3] it was < 100 nM; in experiment [4] it was < 100 nM.
Turning to `COc1cc2c(Oc3ccc(NC(=O)c4ccc(C)n(-c5ccc(F)cc5)c4=O)cc3F)ccnc2cn1` [Compound 494, N-[3-fluoro-4-[(6-methoxy-1,7-naphthyridin-4-yl)oxy]phenyl]-1-(4-fluorophenyl)-6-methyl-2-oxopyridine-3-carboxamide], the IC50 was 100 to 300 nM in experiment [1] (protocol of Example B-2), < 100 nM in experiment [2] (protocol of Example C-2), < 100 nM in experiment [3] and < 100 nM in experiment [4].
